What all share (assay): fluorescence quenching titration of antibody tryptophan
Test [1] concerns the target IgE. Format: binding.
Test [2] concerns the target penicillin G specific IgG (IgG^Pen, monoclonal antibody clone P2B9). Format: binding, Mus musculus.
For test [3], the target named is anti-dansyl IgE (IgE^dansyl, clone 27-74). Format: binding.

This note sets out measurements from paper PMC6823631 (Journal of immunology (Baltimore, Md. : 1950), 2019).

In test [1], `O=C(O)Cc1ccc2ccccc2c1` [Napht, 2-naphteleneacetic acid] yielded a Kd of 1800 ± 300 nM.

In turn, Benzylpenicilloyl returned a Kd in test [2] of 20000 ± 4000 nM.

On to dansyl, for which the affinity in test [3], expressed as Kd, was 29.9 ± 10 nM.

Usually Kd stands for the equilibrium constant for the complex coming apart. The low end stands for higher affinity, the high end for lower affinity.
